According to US20220380341A1, “INHIBITORS OF HIV-1 NEF FOR THE TREATMENT OF HIV DISEASE” (priority 2018, published 2022):
Like-named read-outs stand apart in the source and are kept apart here.

Legend:
HIV-1 NefNL4-3 = HIV-1 NefNL4-3 (Human immunodeficiency virus type 1 group M subtype B, UniProt P03406, A33V/T15A/T51N/V11I); assay: Surface plasmon resonance binding to recombinant full-length Nef (NL4-3); conditions: for RU30/RUNef (extent of binding): response units at 30 μM relative to Nef immobilized on the SPR chip
TZM-bl cell line = format: cell-based; conditions: 1 μM
Procedure, shortened: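 Luciferase read-out 48 h post-infection; compound at 1 μM during HIV-1NL4-3 infection of TZM-bl cells. Percent inhibition scaled to DMSO wild-type virus (0%) and DMSO Nef-defective virus (100% of Nef-dependent effect). Viability checked separately in uninfected cells by Cell Titer Blue.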

HIV-1NL4-3 = assay: HIV-1 infectivity assay in TZM-bl reporter cell line (LTR-luciferase, 48 h); format: cell-based; conditions: for inhibition at 1 µM: Human immunodeficiency virus 1, TZM-bl
Procedure, shortened: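 Nef-dependent infectivity in TZM-bl cells: HIV-1NL4-3 infection with 1 μM compound, luciferase read at 48 h, normalized against DMSO wild-type and Nef-defective controls. Compound cytotoxicity in uninfected cells measured by Cell Titer Blue.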

[1] = KD, M, Table 4, SPR fit 2-step induced fit, KD = koff/kon × koff2/(koff2 + kon2)
[2] = Nef NL4-3 Binding, SPR 2-state fitting KD, Table 1, 2-step induced-fit model
[3] = Table 4, 2-step induced fit, T = 1/koff2
[4] = read-out: Nef NL4-3 Binding, SPR 1:1 or 2-site fitting KD2, Table 1, 2-site fit, second component
[5] = 1.0 μM, TZM-bl reporter cell line, Table 4, read-out: % Infectivity Inhibition
[6] = 48 h, Table 1, TZM-bl cells, 1 μM, 48 h, 100% = Nef-defective HIV-1, read-out: HIV-1 Infectivity % Inhibition Norm. to Δ-Nef @ 1 μM
[7] = KD, M, Table 4, SPR fit 1:1 Langmuir, KD = koff/kon
[8] = Table 4, 1:1 Langmuir fit, T = 1/koff
[9] = Table 1, 1:1 Langmuir fit where the KD2 cell says '1 to 1 fitting', else 2-site fit, read-out: Nef NL4-3 Binding, SPR 1:1 or 2-site fitting KD1
[10] = Table 1, uninfected TZM-bl cells, Cell Titer Blue
[11] = Table 1, TZM-bl cells, 1 μM, 48 h, 100% = Nef-defective HIV-1

| Compound | Kd (HIV-1 NefNL4-3) [nM] | Kd (HIV-1 NefNL4-3; [1]) [nM] | Kd (HIV-1 NefNL4-3; [2]) [nM] | T, minutes (residence time) (HIV-1 NefNL4-3; [3]) | Kd (HIV-1 NefNL4-3; [4]) [nM] | RU30/RUNef (extent of binding) (HIV-1 NefNL4-3) [E- 03] | % Cell Viability (TZM-bl cell line; human) [%] | Percent Viability @ 1 μM (TZM-bl cells) (TZM-bl cell line; human) [%] | inhibition at 1 µM (HIV-1NL4-3; [5]) [%] | inhibition at 1 µM (HIV-1NL4-3; [6]) [%] | Kd (HIV-1 NefNL4-3; [7]) [nM] | T, minutes (residence time) (HIV-1 NefNL4-3; [8]) | Nef NL4-3 Binding, SPR 1:1 or 2-site fitting KD1 (HIV-1 NefNL4-3; Table 2, 1:1 Langmuir fit where the KD2 cell says '1 to 1 fitting', else 2-site fit) | inhibition at 1 µM (HIV-1NL4-3; 48 h, Table 2, TZM-bl cells, 1 μM, 48 h, 100% = Nef-defective HIV-1, read-out: HIV-1 Infectivity % Inhibition Norm. to Δ-Nef @ 1 μM) [%] | Kd (HIV-1 NefNL4-3; [9]) [nM] | Percent Viability @ 1 μM (TZM-bl cells) (TZM-bl cell line; [10]) [%] | HIV-1 Infectivity % Inhibition Norm. to Δ-Nef @ 1 μM (HIV-1NL4-3; [11]) [%] |
| --- | --- | --- | --- | --- | --- | --- | --- | --- | --- | --- | --- | --- | --- | --- | --- | --- | --- |
| O=C(C1CCC(O)CC1)N1CCC(c2nn(-c3nc4ccccc4[nH]3)c(O)c2CCc2ccc(F)cc2)CC1 (stereo not drawn) [Compound I-735, 1-(1H-1,3-benzodiazol-2-yl)-4-[2-(4-fluorophenyl)ethyl]-3-[1-(4-hydroxycyclohexanecarbonyl)piperidin-4-yl]-1H-pyrazol-5-ol] | 46.9 | 0.498 | 0.498 | 6.44E + 03 minutes | 2800 | 6.53 | 96.9 | 96.9 | 38.8 | 38.8 |  |  |  |  |  |  |  |
| Cn1c(-n2nc(-c3cccc(S(C)(=O)=O)c3)c(CCc3ccc(F)cc3)c2O)nc2ccccc21 [Compound I-405, 4-[2-(4-fluorophenyl)ethyl]-3-(3-methanesulfonylphenyl)-1-(1-methyl-1H-1,3-benzodiazol-2-yl)-1H-pyrazol-5-ol] | 4390 |  |  |  |  | 3.25 | 95.7 | 95.7 | 0 | -9.6 | 4390 | 2.32E + 00 minutes |  |  |  |  |  |
| CS(=O)(=O)N1CCC(Cc2nn(-c3nc4ccccc4[nH]3)c(O)c2CCc2ccc(F)cc2)CC1 [Compound I-771, 1-(1H-1,3-benzodiazol-2-yl)-4-[2-(4-fluorophenyl)ethyl]-3-[(1-methanesulfonylpiperidin-4-yl)methyl]-1H-pyrazol-5-ol] | 965 |  |  |  |  |  |  | 100.1 |  | 13.1 |  |  |  |  |  |  |  |
| O=C(c1cnccn1)N1CCCC1c1nn(-c2nc3ccccc3[nH]2)c(O)c1CCc1ccc(F)cc1 (stereo not drawn) [Compound I-759, 1-(1H-1,3-benzodiazol-2-yl)-4-[2-(4-fluorophenyl)ethyl]-3-[1-(pyrazine-2-carbonyl)pyrrolidin-2-yl]-1H-pyrazol-5-ol] | 221 |  |  |  |  |  |  | 98.2 |  | -7.6 |  |  |  |  |  |  |  |
| Cc1nccn1CCc1c(-c2ccc(C(F)(F)F)cc2)nn(-c2nc3ccccc3[nH]2)c1O [Compound I-142, 1-(1H-1,3-benzodiazol-2-yl)-4-[2-(2-methyl-1H-imidazol-1-yl)ethyl]-3-[4-(trifluoromethyl)phenyl]-1H-pyrazol-5-ol] | 32800 |  |  |  |  |  |  | 100.2 |  | -7.8 |  |  |  |  |  |  |  |
| CC(C)(C)c1nn(-c2nc3ccccc3[nH]2)c(O)c1CC1CCOCC1 [Compound I-180, 1-(1H-1,3-benzodiazol-2-yl)-3-tert-butyl-4-[(oxan-4-yl)methyl]-1H-pyrazol-5-ol] |  |  |  |  |  | 2.62 | 100 |  | 74.8 |  | 7190 | 2.48E + 00 minutes |  |  |  |  |  |
| Oc1c(CCc2ccc(F)cc2)c(-c2ccc(C(F)(F)F)cc2)nn1-c1cc(C2CC2)n[nH]1 [Compound I-619, 5′-cyclopropyl-4-[2-(4-fluorophenyl)ethyl]-3-[4-(trifluoromethyl)phenyl]-2′H-[1,3′-bipyrazol]-5-ol] |  |  |  |  |  |  |  | 105.5 |  |  |  |  | No interaction | 0 |  |  |  |
| CC(C)(C)OC(=O)N1CCC(c2nn(-c3nc4cc(F)c(F)cc4[nH]3)c(O)c2CCc2ccc(F)cc2)CC1 [Compound I-219, tert-butyl 4-[1-(5,6-difluoro-1H-1,3-benzodiazol-2-yl)-4-[2-(4-fluorophenyl)ethyl]-5-hydroxy-1H-pyrazol-3-yl]piperidine-1-carboxylate] |  | 49.3 | 49.3 | 4.93E + 02 minutes | 3290 | 4.76 | 79.2 | 79.2 | 100 | 109 |  |  |  |  |  |  |  |
| Cn1c(-n2nc(-c3ccc(S(C)(=O)=O)cc3)c(CCc3ccc(F)cc3)c2O)nc2ccccc21 [Compound I-403, 4-[2-(4-fluorophenyl)ethyl]-3-(4-methanesulfonylphenyl)-1-(1-methyl-1H-1,3-benzodiazol-2-yl)-1H-pyrazol-5-ol] | 2400 |  |  |  |  | 2.88 | 99.9 | 99.9 | 4.1 | 4.1 | 2400 | 3.63E + 00 minutes |  |  |  |  |  |
| Oc1c(CCC2CCNCC2)c(-c2ccc(C(F)(F)F)cn2)nn1-c1nc2cc(Br)ccc2[nH]1 [Compound I-555, 1-(5-bromo-1H-1,3-benzodiazol-2-y1)-4-[2-(piperidin-4-yl)ethyl]-3-[5-(trifluoromethyl)pyridin-2-yl]-1H-pyrazol-5-ol] |  |  |  |  |  |  |  |  |  |  |  |  |  |  | 875 | 104.6 | −118.0 |
| CS(=O)(=O)N1CCC(CCc2c(-c3ccc(C(F)(F)F)cn3)nn(-c3nc4ccccc4[nH]3)c2O)CC1 [Compound I-716] | 1970 | 4370 | 4370 | 3.22E + 00 minutes |  | 5.13 | 97.1 | 97.1 | 22.8 | 22.8 |  |  |  |  |  |  |  |
| COc1cc(N2CCC(CCc3c(C4CC4)nn(-c4nc5cc(Cl)ccc5[nH]4)c3O)CC2)nc(OC)n1 [Compound I-902, 1-(5-chloro-1H-1,3-benzodiazol-2-yl)-3-cyclopropyl-4-{2-[1-(2,6-dimethoxypyrimidin-4-yl)piperidin-4-yl]ethyl}-1H-pyrazol-5-ol] | 6.58 | 0.00367 | 0.00367 | 1.46E + 06 minutes |  | 7.18 | 100 | 106.5 | 13.8 | 13.8 |  |  |  |  |  |  |  |
| O=S(=O)(NCc1nn(-c2nc3ccccc3[nH]2)c(O)c1CCc1ccc(F)cc1)c1cccnc1 [Compound I-774, N-{[1-(1H-1,3-benzodiazol-2-yl)-4-[2-(4-fluorophenyl)ethyl]-5-hydroxy-1H-pyrazo1-3-y1]methyl}pyridine-3-sulfonamide] | 252 | 27.5 | 27.5 | 1.09E + 02 minutes |  | 2.56 | 94.4 | 94.4 | 0 | -0.1 |  |  |  |  |  |  |  |
| O=C(OCc1ccccc1)N1CCC(c2nn(-c3nc4ccncc4[nH]3)c(O)c2CCc2ccc(F)cc2)CC1 [Compound I-310, benzyl 4-{4-[2-(4-fluorophenyl)ethyl]-5-hydroxy-1-{3H-imidazo[4,5-c]pyridin-2-yl}-1H-pyrazol-3-yl}piperidine-1-carboxylate] | 50.2 |  |  |  |  | 2.36 | 100 | 105.6 | 36.6 | 36.6 | 50.2 | 3.56E + 02 minutes |  |  |  |  |  |
| 1-(1H-1,3-benzodiazol-2-yl)-4-[2-(4-fluorophenyl)ethyl]-3-(1-{[2-(1H-pyrrol-1-yl)phenyl]methyl}piperidin-4-yl)-1H-pyrazol-5-ol [Compound I-805] |  |  |  |  |  |  |  |  |  |  |  |  |  |  | 596 | 93.7 | 33.9 |
